Data set [1] addresses T1, Amine oxidase [flavin-containing] A (Homo sapiens, UniProt P21397).
T1 sequence (P21397 whole entry): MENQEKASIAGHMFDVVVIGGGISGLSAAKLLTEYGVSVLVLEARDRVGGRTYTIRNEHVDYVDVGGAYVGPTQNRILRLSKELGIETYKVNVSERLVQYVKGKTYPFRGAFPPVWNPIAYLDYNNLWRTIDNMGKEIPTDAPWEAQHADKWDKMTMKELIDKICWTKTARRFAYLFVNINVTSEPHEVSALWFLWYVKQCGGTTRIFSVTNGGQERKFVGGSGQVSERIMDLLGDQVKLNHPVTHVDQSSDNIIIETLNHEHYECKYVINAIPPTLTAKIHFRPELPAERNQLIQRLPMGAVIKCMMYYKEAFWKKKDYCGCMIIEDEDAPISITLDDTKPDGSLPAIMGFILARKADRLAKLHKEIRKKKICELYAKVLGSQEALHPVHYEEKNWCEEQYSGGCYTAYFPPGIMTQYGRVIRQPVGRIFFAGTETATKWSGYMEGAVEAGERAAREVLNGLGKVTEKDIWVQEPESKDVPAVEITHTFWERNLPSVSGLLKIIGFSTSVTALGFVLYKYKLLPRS
Description: Inhibition of recombinant human MAO-A expressed in insect cells using kynuramine as substrate assessed as formation of 4-hydroxyquinoline measured every 5 mins for 30 mins.

Data set [2] concerns the target T2, Amine oxidase [flavin-containing] B (Homo sapiens, UniProt P27338).
T2 sequence (P27338 whole entry): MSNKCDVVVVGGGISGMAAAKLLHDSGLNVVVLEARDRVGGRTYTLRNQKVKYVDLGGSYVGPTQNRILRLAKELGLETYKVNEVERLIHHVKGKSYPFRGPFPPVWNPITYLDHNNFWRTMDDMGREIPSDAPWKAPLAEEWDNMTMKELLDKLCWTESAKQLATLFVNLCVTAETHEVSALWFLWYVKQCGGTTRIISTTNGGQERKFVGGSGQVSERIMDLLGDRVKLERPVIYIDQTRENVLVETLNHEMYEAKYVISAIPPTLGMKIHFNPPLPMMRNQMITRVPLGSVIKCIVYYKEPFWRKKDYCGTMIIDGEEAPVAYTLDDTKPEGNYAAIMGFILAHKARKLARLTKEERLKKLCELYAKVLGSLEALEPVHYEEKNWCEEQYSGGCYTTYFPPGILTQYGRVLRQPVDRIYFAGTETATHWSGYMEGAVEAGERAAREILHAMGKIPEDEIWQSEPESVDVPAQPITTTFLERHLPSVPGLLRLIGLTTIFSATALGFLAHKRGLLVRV
Nature of the data set: Inhibition of recombinant human MAO-B expressed in insect cells using kynuramine as substrate assessed as formation of 4-hydroxyquinoline measured every 5 mins for 30 mins. It counts as cell-based.

A further data set is filed under the species Homo sapiens. Nature of the data set: Selectivity ratio of IC50 for recombinant human MAO-B to IC50 for recombinant human MAO-A. The conditions noted are these: tested as the 2H-labelled form.
Data set [3] has as its system Cynomolgus monkey. Nature of the data set: Drug metabolism in cynomolgus monkey plasma assessed as radiometabolite M1 retention time at 168 to 174 MBq, iv RP-HPLC analysis. The format is ADME, organism-based, Macaca fascicularis.
Data set [4] in a line: Stability in cynomolgus monkey plasma assessed as unchanged parent compound at 168 to 174 MBq, iv after 120 mins by RP-HPLC analysis. The conditions noted are these: read-out: Stability. It counts as ADME, organism-based, Macaca fascicularis.
For data set [5], the system named is Thalamus. Nature of the data set: Drug uptake in cynomolgus monkey thalamus at 168 to 174 MBq, iv after 60 mins by PET analysis. The format is ADME, organism-based, Macaca fascicularis. The conditions noted are these: in vivo, 1 h.
Data set [6] is described as follows: Stability in cynomolgus monkey plasma assessed as unchanged parent compound at 168 to 174 MBq, iv after 15 mins by RP-HPLC analysis. It counts as ADME, organism-based, Macaca fascicularis. The conditions noted are these: read-out: Stability.
Data set [7] deals with Cynomolgus monkey. Description: Drug metabolism in cynomolgus monkey plasma assessed as radiometabolite M2 retention time at 168 to 174 MBq, iv by RP-HPLC analysis. The format is ADME, organism-based, Macaca fascicularis.
The subject of data set [8] is Thalamus. Nature of the data set: Drug uptake in cynomolgus monkey thalamus at 168 to 174 MBq, iv after 60 mins by PET analysis in presence of L-deprenyl. The conditions noted are these: in vivo, 1 h. The format is ADME, organism-based, Macaca fascicularis.
A further data set relates to Brain. Description: Drug uptake in cynomolgus monkey brain at 168 to 174 MBq, iv after 4 mins by PET analysis. The format is ADME, organism-based, Macaca fascicularis. The conditions noted are these: in vivo.
A short description of data set [9]: Drug uptake in cynomolgus monkey cortex at 168 to 174 MBq, iv after 60 mins by PET analysis in presence of L-deprenyl. The format is ADME, organism-based, Macaca fascicularis. The conditions noted are these: in vivo, 1 h.
The nature of data set [10]: Stability in cynomolgus monkey plasma assessed as unchanged parent compound at 168 to 174 MBq, iv after 45 mins by RP-HPLC analysis. It counts as ADME, organism-based, Macaca fascicularis. The conditions noted are these: read-out: Stability.
The nature of data set [11]: Chemical stability of the compound in PBS at pH 7.4 after 180 mins. It counts as physicochemical. The conditions noted are these: read-out: Stability.
Data set [12] can be described thus: Drug uptake in cynomolgus monkey striatum at 168 to 174 MBq, iv after 60 mins by PET analysis. It counts as ADME, organism-based, Macaca fascicularis. The conditions noted are these: in vivo, 1 h.
Data set [13] in a line: Drug recovery in cynomolgus monkey plasma at 168 to 174 MBq, iv by RP-HPLC analysis in presence of acetonitrile. The format is ADME, organism-based, Macaca fascicularis. The conditions noted are these: read-out: Drug recovery.
A short description of data set [14]: Drug uptake in cynomolgus monkey cerebellum at 168 to 174 MBq, iv after 60 mins by PET analysis. It counts as ADME, organism-based, Macaca fascicularis. The conditions noted are these: in vivo, 1 h.
Data set [15] in a line: Drug uptake in cynomolgus monkey striatum at 168 to 174 MBq, iv after 60 mins by PET analysis in presence of L-deprenyl. It counts as ADME, organism-based, Macaca fascicularis. The conditions noted are these: in vivo, 1 h.
The nature of data set [16]: Drug uptake in cynomolgus monkey cerebellum at 168 to 174 MBq, iv after 60 mins by PET analysis in presence of L-deprenyl. The format is ADME, organism-based, Macaca fascicularis. The conditions noted are these: in vivo, 1 h.
Data set [17] can be described thus: Drug uptake in cynomolgus monkey cortex at 168 to 174 MBq, iv after 60 mins by PET analysis. It counts as ADME, organism-based, Macaca fascicularis. The conditions noted are these: in vivo, 1 h.

Molecules are shown by their SMILES.

For orientation: IC50 means the point on the concentration scale where inhibition reaches its midpoint. `[2H]C([2H])(C#C)N[C@@H]1c2ccccc2C[C@H]1F`: the figures for the half-maximal inhibitory concentration (IC50) in [1] and in data set [2] were 9900 nM and 173 nM, respectively.

Regarding `C#CCN[C@@H]1c2ccccc2C[C@H]1F`, the Ratio IC50 in the data set listed under Homo sapiens came to 19.

For `C#CCN[C@H]1c2ccccc2C[C@@H]1F` [FLUORORASAGILINE], the IC50 in [2] worked out at 27 nM.

In the case of `[2H]C([2H])(C#C)N[C@@H]1c2ccccc2C[C@H]1[18F]` [[18F]FLUORORASAGILINE-D2], the Retention_time is given as 2.9 min with Cynomolgus monkey [3] and 6.7 min in the data set on Cynomolgus monkey [7]. The remaining at 2 h in data set [4] turned out to be 20%. Further, the SUV in the data set on Thalamus [5] was 1.46%; with Thalamus [8], 0.78%; in the data set on Brain, 270%; in [9] it was 0.66%; in data set [12], 1.38%; in data set [14], 0.99%. Further, the SUV is recorded as 0.77% in data set [15], 0.54% in data set [16] and 1.1% in data set [17]. For the same molecule, the remaining at 0.25 h in [6] was 75%. For the same molecule, in data set [10], the remaining at 0.75 h worked out at 50%. Besides, the remaining at 3 h in data set [11] was more than 97%. Further, the recovery in [13] was more than 95%.

As to `C#CCN[C@H]1c2ccccc2C[C@@H]1[18F]` [[18F]FLUORORASAGILINE], the remaining at 2 h in [4] is 35%. Moreover, the remaining at 0.75 h in [10] is 55%.

The record behind these values is ChEMBL document CHEMBL2440022, “Development of a novel fluorine-18 labeled deuterated fluororasagiline ([(18)F]fluororasagiline-D2) radioligand for PET studies of monoamino oxidase B (MAO-B)” (Bioorg Med Chem, 2013).
